Series [1] relates to CYP3A. Nature of the series: CYP Induction (CYP3A activity in cryopreserved hepatocytes, P450-Glo CYP3A4 assay). The class given is in vitro ADME. Conditions: % of positive control (inducibility by 10 μmol/L rifampicin = 100%); hepatocytes treated 3 days. The protocol: Cryopreserved hepatocytes were thawed in a culture medium (In VitroGRO™ CP Medium, Celsis In Vitro Technologies, U.S.A.), and the resultant was added to BioCoat™ Matrigel® Matrix Thin-Layer 96 well (Becton, Dickinson and Company, U.S.A.) at a concentration of 40,000 cells/well. After culturing for 24 hours, the culture medium was removed, and replaced with an incubation medium (In VitroGRO™, HI Medium with Torpedo Antibiotic Mix, Celsis In Vitro Technologies, U.S.A.). Cells were cultured for an additional 3 days. The medium was removed on day 4, and the remained cells were treated in the induction medium containing a test compound for 3 days in the presence or absence of 10 μmol/L rifampicin. The induction medium was replaced every day. The test compound addition wells in the presence of 10 μmol/L rifampicin were used to evaluate the inhibitory effect of the test compound on the inducibility of the CYP3A activity by rifampicin. The CYP3A activity was evaluated by measuring luciferin generating amount after the addition of 2 μmol/L luciferin-IPA using IPA P450-Glo™ CYP3A4 assay systems (Promega Corporation, U.S.A.). All cultures were carried out under a humidified environment at 37° C., 5% CO2. The inducibility by rifampicin was defines as 100%, and the inducibility of the test compound (% of positive control) was calculated from the following equation: [(luciferin fluorescence intensity in the absence of rifampicin and the presence of test compound)−(luciferin fluorescence intensity in the absence of rifampicin and test compound)/(luciferin fluorescence intensity in the presence of rifampicin and the absence of test compound)−(Luciferin fluorescence intensity in the absence of rifampicin and test compound)]×100.

Series [2] has as its target T1, human CaSR (Homo sapiens, UniProt P41180).
T1 construct: expressed in transfected cells; host or cells: CHO cells
T1 sequence (P41180 20-1078): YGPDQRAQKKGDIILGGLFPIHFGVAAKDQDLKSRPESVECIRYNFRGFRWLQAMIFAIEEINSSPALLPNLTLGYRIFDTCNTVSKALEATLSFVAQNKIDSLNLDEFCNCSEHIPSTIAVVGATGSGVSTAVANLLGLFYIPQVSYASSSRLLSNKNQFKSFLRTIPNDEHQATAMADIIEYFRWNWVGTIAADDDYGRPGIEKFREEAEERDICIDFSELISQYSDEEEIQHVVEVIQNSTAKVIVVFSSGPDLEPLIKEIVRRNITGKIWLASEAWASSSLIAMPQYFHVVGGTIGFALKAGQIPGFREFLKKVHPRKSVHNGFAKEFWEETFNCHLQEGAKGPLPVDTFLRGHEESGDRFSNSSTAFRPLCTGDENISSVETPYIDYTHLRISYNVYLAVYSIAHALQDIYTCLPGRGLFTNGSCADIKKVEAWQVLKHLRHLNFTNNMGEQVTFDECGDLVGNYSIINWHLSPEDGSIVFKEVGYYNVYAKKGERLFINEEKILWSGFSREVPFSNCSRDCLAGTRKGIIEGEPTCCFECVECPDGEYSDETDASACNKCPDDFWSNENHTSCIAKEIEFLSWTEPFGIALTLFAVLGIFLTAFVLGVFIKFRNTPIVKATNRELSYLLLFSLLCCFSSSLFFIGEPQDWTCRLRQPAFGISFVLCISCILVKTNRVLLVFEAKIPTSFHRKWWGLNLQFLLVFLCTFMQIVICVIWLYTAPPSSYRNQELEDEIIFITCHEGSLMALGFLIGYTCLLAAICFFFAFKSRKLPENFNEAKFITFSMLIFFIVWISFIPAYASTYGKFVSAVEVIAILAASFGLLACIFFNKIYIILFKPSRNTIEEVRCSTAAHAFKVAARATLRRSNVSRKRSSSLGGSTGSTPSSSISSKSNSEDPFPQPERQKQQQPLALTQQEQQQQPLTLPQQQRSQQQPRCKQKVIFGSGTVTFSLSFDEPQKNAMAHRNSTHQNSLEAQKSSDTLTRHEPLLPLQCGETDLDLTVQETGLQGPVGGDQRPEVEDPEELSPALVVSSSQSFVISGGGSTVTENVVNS
Briefly: Human CaSR Antagonist Activity (CHO cells, NFAT-Luciferase reporter). It counts as cell-based. Conditions: CHO, 2 h, 3.3 μm test compound; CaCl2 final 1.3 mM; 100% = reference carboxamide at 10 μM; read-out: Inhibition rate (%) at 3.3 μm. The procedure:
CaSR antagonist activity measurement was performed using Bright-Glo Luciferase assay system (Promega Corporation). CHO cells in which human CaSR and NFAT-Luciferase reporter gene were forcibly expressed were suspended in MEM alpha (Wako Pure Chemical Industries, Ltd.) containing 10% dialyzed serum (HyClone). The cells in suspension was seeded in 384-well white plate (Corning) at 10,000/20 μL/well, and cultured in an incubator of 37° C., 5% CO2 for one day. A diluent of Test compound was prepared with assay buffer (MEM alpha containing 10 mM HEPES (Life Technologies) and 10% dialysis serum). The diluent was added to the plate at 5 μL/well and allowed to stand at 37° C. for 10 minutes. Further, a diluent of 7.8 mM CaCl2 prepared with assay buffer (final concentration 1.3 mM) was added at 5 μl/well and allowed to stand in an incubator of 37° C., 5% CO2 for 2 hours. Bright-Glo reagents (Promega Corporation) were added at 10 μL/well, and the obtained mixture was stirred for 5 minutes, and then luminescence intensity was measured using Multi-label reader Envision (PerkinElmer, Inc.). The activity (%) of the test compound was calculated with the definitions in which the luminescence intensity when DMSO is added in place of the test compound is defined as 0% inhibition; and the luminescence intensity when (5R)—N-(1-ethyl-1-(4-ethylphenyl)propyl)-2,7,7-trimethyl-5-phenyl-4,5,6,7-tetrahydropyrazolo[1,5-a]Pyrimidine-3-carboxamide at final concentration of 10 μM is added is defined as 100% inhibition.

The inhibition is the change of the read-out against control, counted positive when it falls.

For `CC1(C)C[C@H](c2ccccc2)Nc2c(C(=O)N3C[C@@H]4C[C@]4(c4ccc(Cl)c(Cl)c4)C3)cnn21` [Example 1, ((1S,5R)-1-(3,4-Dichlorophenyl)-3-azabicyclo[3.1.0]hex-3-yl)((5R)-7,7-dimethyl-5-phenyl-4,5,6,7-tetrahydropyrazolo[1,5-a]pyrimidin-3-yl)methanone], the “Inducibility (%)” value in series [1] turned out to be 4.9%. Moreover, the inhibition at 3.3 µM in series [2] amounted to 100%.

(Values after patent publication US10919891B2, “Heterocyclic compound” (TAKEDA PHARMACEUTICAL COMPANY LIMITED, priority 2017, dated 2021).)
